Experimental data as given in publication PMC2222994 (The Journal of General Physiology, 1999).

Molecular target: T1, CNG channel (bovine retinal rod cGMP-gated channel alpha subunit) (Bos taurus, UniProt Q00194)
T1 sequence (Q00194 1-690): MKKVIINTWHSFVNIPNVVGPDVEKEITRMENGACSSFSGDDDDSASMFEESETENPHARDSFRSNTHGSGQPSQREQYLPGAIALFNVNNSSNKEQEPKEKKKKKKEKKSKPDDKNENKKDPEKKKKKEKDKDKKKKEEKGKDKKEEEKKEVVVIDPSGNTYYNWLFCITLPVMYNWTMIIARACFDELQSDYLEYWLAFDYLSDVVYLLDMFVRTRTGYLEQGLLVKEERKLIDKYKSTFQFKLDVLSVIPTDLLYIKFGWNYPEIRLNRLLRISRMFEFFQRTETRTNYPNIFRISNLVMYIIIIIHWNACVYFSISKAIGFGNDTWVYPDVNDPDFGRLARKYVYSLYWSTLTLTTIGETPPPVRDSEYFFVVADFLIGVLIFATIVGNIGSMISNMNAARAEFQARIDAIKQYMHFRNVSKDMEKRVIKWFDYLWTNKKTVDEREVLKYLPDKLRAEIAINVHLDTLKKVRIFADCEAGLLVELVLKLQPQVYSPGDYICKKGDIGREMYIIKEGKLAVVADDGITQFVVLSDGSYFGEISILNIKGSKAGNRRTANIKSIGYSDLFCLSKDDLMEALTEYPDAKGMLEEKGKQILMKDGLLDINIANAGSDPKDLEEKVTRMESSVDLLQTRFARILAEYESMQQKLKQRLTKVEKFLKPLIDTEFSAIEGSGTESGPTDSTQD
Assay: outside-out patch clamp, macroscopic current block
Format: cell-based

IC50 [µM] | Structure (SMILES)
1400 | NCCCCN [putrescine]
50 | NCCCCNCCCN [spermidine]
3.1 | NCCCNCCCCNCCCN [spermine]
